The nature of series [1]: Cytotoxicity against mouse J774 cells assessed as cell viability at 10 ug/mL after 24 hrs by MTT assay. The format is cell-based. Conditions: read-out: Activity. (Tetrazolium dyes change colour on reduction, which living cells bring about.)
Series [2] concerns Plasmodium falciparum. Nature of the series: Antimalarial activity against Plasmodium falciparum W2 by [3H]hypoxanthine uptake. It counts as functional, organism-based.
Series [3] is described as follows: Cytotoxicity against mouse J774 cells assessed as cell viability at 100 ug/mL after 24 hrs by MTT assay. The format is cell-based. The note with it: read-out: Activity.
A short description of series [4]: Cytotoxicity against mouse J774 cells assessed as cell viability at 1 ug/mL after 24 hrs by MTT assay. The format is cell-based. Conditions: read-out: Activity.
Series [5] can be described thus: Cytotoxicity against mouse J774 cells assessed as cell viability at 0.1 ug/mL after 24 hrs by MTT assay. It counts as cell-based. The note with it: read-out: Activity.
The subject of series [6] is Plasmodium falciparum. Nature of the series: Antimalarial activity against chloroquine-sensitive Plasmodium falciparum 3D7 by [3H]hypoxanthine uptake. It counts as functional, organism-based.

Molecules are shown by their SMILES.

As usually defined, the IC50 is the concentration that gives 50% inhibition. A lower IC50 goes with greater potency in that assay.

For `COc1ccc(CN2CCN(C[C@@H](O)[C@H](Cc3ccccc3)NS(=O)(=O)c3ccc(C)cc3)CC2)cc1`, the viability at 24 h, 10 ug/mL in series [1] was determined as 84%. Moreover, in series [2], the IC50 was more than 90 µM. Further, in series [3], the viability at 24 h, 100 ug/mL is 6%. Moreover, in series [4], the viability at 24 h, 1 ug/mL turned out to be 90%. The viability at 24 h, 0.1 ug/mL in series [5] was determined as 100%.

Take `O=S(=O)(N[C@@H](Cc1ccccc1)[C@H](O)CN1CCN(Cc2ccc3c(c2)OCO3)CC1)c1ccc(F)cc1`: in series [1], the viability at 24 h, 10 ug/mL turned out to be 83%. Besides, half-maximal inhibition in series [2] (IC50) was put at 42.5 µM. For the same molecule, the viability at 24 h, 100 ug/mL in series [3] is 4%. In addition, in series [4], the viability at 24 h, 1 ug/mL was found to be 94%. Besides, in series [5], the viability at 24 h, 0.1 ug/mL was determined as 100%.

Consider `Cc1ccc(S(=O)(=O)N[C@@H](Cc2ccccc2)[C@H](O)CN2CCN(Cc3ccc(Cl)cc3)CC2)cc1`, for which the viability at 24 h, 10 ug/mL in series [1] came out at 90%. In series [2], this molecule came in with an IC50 of 35.1 µM. The viability at 24 h, 100 ug/mL in series [3] was determined as 22%. The viability at 24 h, 1 ug/mL in series [4] is 98%. Further, in series [5], the viability at 24 h, 0.1 ug/mL was determined as 100%.

Consider `COc1ccc(CN2CCN(C[C@@H](O)[C@H](Cc3ccccc3)NS(=O)(=O)c3ccc(C)cc3)CC2)cc1OC`, for which, in series [1], the viability at 24 h, 10 ug/mL is 92%. This molecule showed an IC50 in series [2] of more than 90 µM. The viability at 24 h, 100 ug/mL in series [3] was 9%. Moreover, in series [4], the viability at 24 h, 1 ug/mL amounted to 100%. Further, the viability at 24 h, 0.1 ug/mL in series [5] was found to be 100%.

As for `O=S(=O)(N[C@@H](Cc1ccccc1)[C@H](O)CN1CCN(Cc2ccc3c(c2)OCO3)CC1)c1ccc(Br)cc1`, in series [1], the viability at 24 h, 10 ug/mL stood at 96%. Also, the IC50 in series [2] came out at 5.6 µM; in series [6] it was 5.7 µM. In addition, the viability at 24 h, 100 ug/mL in series [3] came out at 5%. Moreover, the viability at 24 h, 1 ug/mL in series [4] stood at 100%. Further, the viability at 24 h, 0.1 ug/mL in series [5] was 100%.

Regarding `COc1ccc(S(=O)(=O)N[C@@H](Cc2ccccc2)[C@H](O)CN2CCN(Cc3ccc4c(c3)OCO4)CC2)cc1`, in series [1], the viability at 24 h, 10 ug/mL worked out at 90%. The IC50 in series [2] was 34.3 µM. In addition, in series [3], the viability at 24 h, 100 ug/mL was 12%. Besides, in series [4], the viability at 24 h, 1 ug/mL turned out to be 99%. Also, the viability at 24 h, 0.1 ug/mL in series [5] stood at 100%.

Regarding `O=[N+]([O-])c1ccc(S(=O)(=O)N[C@@H](Cc2ccccc2)[C@H](O)CN2CCN(Cc3ccc4c(c3)OCO4)CC2)cc1`, the viability at 24 h, 10 ug/mL in series [1] came to 100%. In series [2], this molecule displayed a concentration for half-maximal inhibition (IC50) of 44 µM. Also, in series [3], the viability at 24 h, 100 ug/mL was 40%. Besides, the viability at 24 h, 1 ug/mL in series [4] was 100%. Besides, the viability at 24 h, 0.1 ug/mL in series [5] is 100%.

Take `Nc1ccc(S(=O)(=O)N[C@@H](Cc2ccccc2)[C@H](O)CN2CCN(Cc3ccc4c(c3)OCO4)CC2)cc1`: in series [1], the viability at 24 h, 10 ug/mL stood at 99%. In addition, the IC50 in series [2] amounted to 4.8 µM; in series [6], 4.6 µM. Moreover, the viability at 24 h, 100 ug/mL in series [3] came out at 55%. Further, the viability at 24 h, 1 ug/mL in series [4] was found to be 100%. The viability at 24 h, 0.1 ug/mL in series [5] was 100%.

On to `Cc1ccc(S(=O)(=O)N[C@@H](Cc2ccccc2)[C@H](O)CN2CCN(Cc3ccc([N+](=O)[O-])cc3)CC2)cc1`, for which the viability at 24 h, 10 ug/mL in series [1] is 93%. Besides, the half-maximal inhibitory concentration (IC50) in series [2] was more than 90 µM. The viability at 24 h, 100 ug/mL in series [3] was 92%. Also, the viability at 24 h, 1 ug/mL in series [4] amounted to 100%. In series [5], the viability at 24 h, 0.1 ug/mL was determined as 91%.

`Cc1ccc(S(=O)(=O)N[C@@H](Cc2ccccc2)[C@H](O)CN2CCN(Cc3ccc(N)cc3)CC2)cc1`: in series [1], the viability at 24 h, 10 ug/mL came out at 77%. Also, the concentration for half-maximal inhibition (IC50) in series [2] was more than 90 µM. Besides, in series [3], the viability at 24 h, 100 ug/mL came out at 10%. The viability at 24 h, 1 ug/mL in series [4] came out at 90%. In addition, the viability at 24 h, 0.1 ug/mL in series [5] amounted to 100%.

`Cc1ccc(S(=O)(=O)N[C@@H](Cc2ccccc2)[C@H](O)CN2CCN(Cc3ccccc3)CC2)cc1`: the viability at 24 h, 10 ug/mL in series [1] was 88%. Also, the IC50 in series [2] is more than 90 µM. Also, the viability at 24 h, 100 ug/mL in series [3] stood at 5%. Also, the viability at 24 h, 1 ug/mL in series [4] amounted to 86%. Moreover, the viability at 24 h, 0.1 ug/mL in series [5] turned out to be 100%.

Take `Cc1c(O)cccc1C(=O)N[C@@H](Cc1ccccc1)[C@H](O)CN1CCN(Cc2ccc3c(c2)OCO3)CC1`: the viability at 24 h, 10 ug/mL in series [1] was 8%. Besides, half-maximal inhibition in series [2] (IC50) was put at 5.9 µM. Also, the viability at 24 h, 100 ug/mL in series [3] was 8%. Further, the viability at 24 h, 1 ug/mL in series [4] turned out to be 75%. Moreover, the viability at 24 h, 0.1 ug/mL in series [5] turned out to be 100%.

As for `Cc1ccc(S(=O)(=O)N[C@@H](Cc2ccccc2)[C@H](O)CN2CCN(Cc3ccc(F)cc3)CC2)cc1`, the viability at 24 h, 10 ug/mL in series [1] was determined as 92%. Besides, it took 43 µM to reach half-maximal inhibition in series [2] (IC50). Also, the viability at 24 h, 100 ug/mL in series [3] came out at 15%. In addition, the viability at 24 h, 1 ug/mL in series [4] came to 100%. Also, the viability at 24 h, 0.1 ug/mL in series [5] stood at 100%.

For the molecule `O=C(N[C@@H](Cc1ccccc1)[C@H](O)CN1CCN(Cc2ccc3c(c2)OCO3)CC1)c1c(Cl)cccc1Cl`, in series [1], the viability at 24 h, 10 ug/mL was 84%. This molecule had a 50% inhibitory concentration (IC50) in series [2] of 55.5 µM. Moreover, in series [3], the viability at 24 h, 100 ug/mL was 43%. The viability at 24 h, 1 ug/mL in series [4] came to 90%. Also, the viability at 24 h, 0.1 ug/mL in series [5] amounted to 100%.

For `O=C(N[C@@H](Cc1ccccc1)[C@H](O)CN1CCN(Cc2ccc3c(c2)OCO3)CC1)c1ccc2c(c1)OCO2`, the viability at 24 h, 10 ug/mL in series [1] stood at 95%. Besides, inhibition in series [2] was half-maximal at 25.4 µM (IC50). Moreover, the viability at 24 h, 100 ug/mL in series [3] amounted to 61%. The viability at 24 h, 1 ug/mL in series [4] was found to be 100%. The viability at 24 h, 0.1 ug/mL in series [5] is 100%.

With `O=C(N[C@@H](Cc1ccccc1)[C@H](O)CN1CCN(Cc2ccc3c(c2)OCO3)CC1)c1cc(Cl)cc(Cl)c1`, the viability at 24 h, 10 ug/mL in series [1] was 98%. Moreover, in series [2], the midpoint of inhibition, the IC50, lay at 47.2 µM. The viability at 24 h, 100 ug/mL in series [3] stood at 93%. Also, the viability at 24 h, 1 ug/mL in series [4] came out at 100%. In addition, the viability at 24 h, 0.1 ug/mL in series [5] turned out to be 98%.

As for `O=C(N[C@@H](Cc1ccccc1)[C@H](O)CN1CCN(Cc2ccc3c(c2)OCO3)CC1)c1c(F)cccc1F`, the viability at 24 h, 10 ug/mL in series [1] worked out at 83%. For the same molecule, 47.4 µM corresponded to half-maximal inhibition in series [2] (IC50). Further, in series [3], the viability at 24 h, 100 ug/mL was 51%. The viability at 24 h, 1 ug/mL in series [4] was 87%. In addition, the viability at 24 h, 0.1 ug/mL in series [5] turned out to be 85%.

Consider `O=C(N[C@@H](Cc1ccccc1)[C@H](O)CN1CCN(Cc2ccc3c(c2)OCO3)CC1)c1ccccc1`, for which, in series [1], the viability at 24 h, 10 ug/mL was 91%. In addition, in series [2], the IC50 came to 69.4 µM. In series [3], the viability at 24 h, 100 ug/mL amounted to 38%. Further, the viability at 24 h, 1 ug/mL in series [4] was found to be 100%. For the same molecule, in series [5], the viability at 24 h, 0.1 ug/mL turned out to be 100%.

Turning to `Cc1ccc(S(=O)(=O)N[C@@H](Cc2ccccc2)[C@H](O)CN2CCN(Cc3ccc4c(c3)OCO4)CC2)cc1`, in series [1], the viability at 24 h, 10 ug/mL amounted to 98%. This molecule also returned an IC50 in series [2] of 16.9 µM. Further, in series [3], the viability at 24 h, 100 ug/mL is 49%. Further, in series [4], the viability at 24 h, 1 ug/mL stood at 100%. Moreover, in series [5], the viability at 24 h, 0.1 ug/mL came out at 100%.

Source of the values: ChEMBL document CHEMBL1153608, “Synthesis, antimalarial evaluation and molecular modeling studies of hydroxyethylpiperazines, potential aspartyl protease inhibitors, part 2” (Eur J Med Chem, 2009).
